This note sets out measurements from ChEMBL document CHEMBL1127611 (J Med Chem, 1994).

pKi: −log10 of the molar value.

What is called pKi is the negative decadic logarithm of the Ki, by convention in mol/L. Higher therefore signals a small Ki.

In this test the target is T1, Vesicular acetylcholine transporter (Torpedo californica, UniProt P81721).
T1 sequence (P81721 whole entry): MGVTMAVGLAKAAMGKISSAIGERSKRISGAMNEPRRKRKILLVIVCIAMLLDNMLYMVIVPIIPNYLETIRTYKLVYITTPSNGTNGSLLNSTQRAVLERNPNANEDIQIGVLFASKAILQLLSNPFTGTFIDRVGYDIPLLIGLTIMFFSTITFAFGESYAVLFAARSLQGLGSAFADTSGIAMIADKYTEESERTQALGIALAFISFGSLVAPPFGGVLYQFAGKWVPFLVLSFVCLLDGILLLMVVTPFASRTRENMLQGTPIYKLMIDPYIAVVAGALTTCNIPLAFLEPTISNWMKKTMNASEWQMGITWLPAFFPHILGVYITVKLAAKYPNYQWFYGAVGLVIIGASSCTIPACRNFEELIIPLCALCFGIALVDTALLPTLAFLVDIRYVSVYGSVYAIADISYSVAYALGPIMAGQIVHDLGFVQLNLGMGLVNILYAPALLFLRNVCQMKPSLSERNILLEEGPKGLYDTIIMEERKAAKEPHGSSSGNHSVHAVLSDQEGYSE
The test is described as follows: In vitro binding affinity to vesamicol receptor using [3H]vesamicol. On the set-up: species or system Tetronarce californica.
Consider `Nc1cccc2c1C[C@@H](N1CCC(c3ccccc3)CC1)[C@H](O)C2`, for which the pKi was 11.19.

`O[C@@H]1CCN(Cc2ccc(I)cc2)C[C@H]1N1CCC2(CCCc3ccccc32)CC1` gave a pKi of 9.20.

The compound `O[C@@H]1Cc2ccccc2C[C@H]1N1CCC2(CC1)C(Br)=Cc1ccccc12` gave a pKi of 9.39.

`O[C@@H]1CCN(Cc2ccc(F)cc2)C[C@H]1N1CCC2(CCCc3ccccc32)CC1` showed a pKi of 8.58.

With `O[C@@H]1Cc2ccccc2C[C@H]1N1CCC2(CCc3ccccc32)CC1`, the pKi was 9.44.

Compound `O[C@@H]1CCN(Cc2ccc(I)cc2)C[C@H]1N1CCC2(C=Cc3ccccc32)CC1` gave a pKi of 9.12.

Take `O[C@@H]1CCN(Cc2ccc(F)cc2)C[C@H]1N1CCC2(CCc3ccccc32)CC1`: the negative logarithm of the Ki (pKi) was 9.44.

In the case of `O[C@@H]1CCN(Cc2ccccc2I)C[C@H]1N1CCC(c2ccccc2)CC1`, the pKi is 9.83.

The compound `O[C@@H]1CCN(Cc2ccccc2I)C[C@H]1N1CCC2(C=Cc3ccccc32)CC1` gave a pKi of 9.10.

Take `O[C@@H]1CCN(Cc2cccc(I)c2)C[C@H]1N1CCC2(C=Cc3ccccc32)CC1`: the pKi is 9.58.

Consider `O[C@@H]1Cc2ccccc2C[C@H]1N1CCC2(C=Cc3cc(Br)ccc32)CC1`, for which the pKi was 9.57.

Turning to `O[C@@H]1CCN(Cc2ccccc2I)C[C@H]1N1CCC2(CCc3ccccc32)CC1`, the pKi was 9.01.

With `O[C@@H]1Cc2ccccc2C[C@H]1N1CCC2(C=Cc3ccccc32)CC1`, the pKi is 9.92.

In turn, `O[C@@H]1CCCC[C@H]1N1CCC2(CCc3ccccc32)CC1` had a pKi of 8.12.

Compound `O[C@@H]1CCCC[C@H]1N1CCC2(C=Cc3ccccc32)CC1` gave a pKi of 8.16.

Compound `O[C@@H]1CCN(Cc2ccccc2I)C[C@H]1N1CCC2(CCCc3ccccc32)CC1` showed a pKi of 8.24.

Turning to `O[C@@H]1Cc2ccccc2C[C@H]1N1CCC2(C=Cc3c(Br)cccc32)CC1`, the pKi is 9.67.

In turn, `O[C@@H]1CCN(Cc2ccc(I)cc2)C[C@H]1N1CCC2(CCc3ccccc32)CC1` had a pKi of 9.10.

Compound `O[C@@H]1Cc2ccccc2C[C@H]1N1CCC2(CCCc3ccccc32)CC1` had a negative logarithm of the Ki (pKi) of 7.74.

`O[C@@H]1CCN(Cc2ccc(F)cc2)C[C@H]1N1CCC2(C=Cc3ccccc32)CC1` had a pKi of 9.61.

In turn, `O[C@@H]1CCN(Cc2ccc(I)cc2)C[C@H]1N1CCC(c2ccccc2)CC1` gave a pKi of 10.30.

As for `O[C@@H]1CCN(Cc2cccc(I)c2)C[C@H]1N1CCC2(CCCc3ccccc32)CC1`, the pKi is 9.07.

The compound `O[C@@H]1CCN(Cc2cccc(I)c2)C[C@H]1N1CCC(c2ccccc2)CC1` gave a pKi of 10.20.

`O[C@@H]1Cc2ccccc2C[C@H]1N1CCC2(C=Cc3ccc(Br)cc32)CC1` showed a pKi of 8.85.

The compound `O[C@@H]1CCCC[C@H]1N1CCC2(CCCc3ccccc32)CC1` had a pKi of 7.62.
